A short description of the series: Human HepG2 cell viability assay in 384 well format. Format: toxicity, cell-based. Also on record: dose 125 nL, time 70.5 hour; concentration not given beside the values. Particulars: HepG2 cells, read-out: Inhibition.
Turning to `NC(=O)C1CCN(C(=O)c2ccc(Cn3cc(Br)cn3)cc2)CC1`, the cytotoxicity at 70.5 h turned out to be 16%.

In the case of `O=C(Nc1cnn(Cc2ccc(F)cc2Cl)c1)C1CC1`, the cytotoxicity at 70.5 h was -3.99%.

Turning to `CSc1[nH]nc(NC(=O)c2ccncc2)c1C#N`, the cytotoxicity at 70.5 h was -1.59%.

Consider `CCN(Cc1nonc1C)C(=O)Cn1nc(C(F)(F)F)cc1C1CC1`, for which the cytotoxicity at 70.5 h was -5.16%.

For the molecule `CCN(Cc1nonc1C)C(=O)Cn1nc(C(F)(F)F)cc1C`, the cytotoxicity at 70.5 h is -9.27%.

As for `CC(=O)c1ccc(NC(=O)C(C)Cn2cc(Br)cn2)cc1` (stereo not given), the cytotoxicity at 70.5 h was -5.47%.

Turning to `CC(C)(C)NC(=O)c1ccn(COc2ccccc2Cl)n1`, the cytotoxicity at 70.5 h is -5.39%.

As to `Cc1nnsc1C(=O)N1CCC(c2nc3ccccc3[nH]2)CC1`, the cytotoxicity at 70.5 h is 24%.

With `CCCN(C(=O)COCC)c1cccc(C)c1`, the cytotoxicity at 70.5 h is -4.58%.

For `COCCNCc1ccc(OCC(=O)NC(C)(C)C)cc1`, the cytotoxicity at 70.5 h was determined as 19.6%.

Regarding `CC(C(=O)N1CCN(c2ccc(F)cc2)CC1)n1cc(Br)cn1` (stereo not given), the cytotoxicity at 70.5 h was -8.98%.

Turning to `COCC(=O)Nc1cnn(COc2ccc(F)cc2Cl)c1`, the cytotoxicity at 70.5 h was found to be 2.16%.

For the molecule `CC(NC(=O)c1ccc(Cl)cc1)c1nnc(SCC(N)=O)n1C` (stereo not given), the cytotoxicity at 70.5 h is -8%.

Consider `Cn1cc(I)c(C(=O)NCCCn2cc(Br)cn2)n1`, for which the cytotoxicity at 70.5 h turned out to be 0.223%.

As for `Cn1cc(Br)c(C(=O)NCCCn2cc(Br)cn2)n1`, the cytotoxicity at 70.5 h came to 6.5%.

Regarding `CCn1ncc(CN2CCN(C(=O)Cn3cc(Br)c(C)n3)CC2)c1C`, the cytotoxicity at 70.5 h was -9.19%.

On to `Cc1nn(Cc2ccc(C(=O)NCCCN3CCCC3=O)o2)c(C)c1Cl`, for which the cytotoxicity at 70.5 h is -10.6%.

For `Cc1cc(NC(=O)C(C)Cn2cc(Br)cn2)no1` (stereo not given), the cytotoxicity at 70.5 h is 1.29%.

In the case of `CC(C)(C)NC(=O)c1ccn(COc2c(Cl)cccc2Cl)n1`, the cytotoxicity at 70.5 h is -0.674%.

As to `O=C(c1ccnn1COc1ccc(Cl)cc1)N1CCSCC1`, the cytotoxicity at 70.5 h is -11%.

Regarding `CS(=O)(=O)Nc1cnn(Cc2cccc(Cl)c2)c1`, the cytotoxicity at 70.5 h is -7.33%.

For `COc1ccc(OC)c(C(C)NS(=O)(=O)c2cn(C)nc2C)c1` (stereo not given), the cytotoxicity at 70.5 h was -3.29%.

Consider `CCn1cc(NS(=O)(=O)c2ccc(Br)s2)c(C(=O)NCC(C)C)n1`, for which the cytotoxicity at 70.5 h was -0.598%.

With `Cc1nn(C)cc1-c1cc(C(F)F)nc2sc(C(N)=O)c(N)c12`, the cytotoxicity at 70.5 h amounted to 7.12%.

As to `Cc1c(Br)c(C(F)F)nn1C(C)C(=O)O` (stereo not given), the cytotoxicity at 70.5 h was -10.2%.

Take `COC(=O)c1ccn(COc2ccccc2Cl)n1`: the cytotoxicity at 70.5 h was -9.21%.

On to `Cc1c(-c2cc(C(F)F)nc3sc(C(N)=O)c(N)c23)cnn1C`, for which the cytotoxicity at 70.5 h is -1.99%.

Consider `Cc1c(-c2cc(-c3cnn(C)c3C)n(CC(=O)NC3CC3)n2)cnn1C`, for which the cytotoxicity at 70.5 h stood at 19.6%.

Regarding `COc1cc(NC(=O)NCC2CCCO2)cc(OC)c1` (stereo not given), the cytotoxicity at 70.5 h was 16.9%.

With `Cn1c(=O)n(C)c2nc(Br)c(CC(=O)c3ccccc3)n2c1=O`, the cytotoxicity at 70.5 h is -4.55%.

As to `Fc1ccccc1NCc1nc2n(n1)CCCCC2`, the cytotoxicity at 70.5 h is -19.3%.

As for `Cc1ccc(C)c(NCc2nc3n(n2)CCCCC3)c1`, the cytotoxicity at 70.5 h is -15.6%.

As to `CCOc1ccc(N2CCCN=C2NC(=O)c2ccc(Cl)cc2)cc1`, the cytotoxicity at 70.5 h is -1.22%.

In the case of `CN1CC(Oc2ccccc2)=NC(SCC(=O)Nc2ccccc2Cl)=N1`, the cytotoxicity at 70.5 h was determined as 5.43%.

In the case of `OC1=C2C(=Nc3n[nH]c(O)c3C2c2ccccc2Cl)CCC1` (stereo not given), the cytotoxicity at 70.5 h turned out to be 9.03%.

On to `CSc1nc(N)c2c(n1)N=C1COC(O)=C1C2c1cccc(O)c1` (stereo not given), for which the cytotoxicity at 70.5 h was found to be 0.964%.

Consider `Cc1cccc(NC(C)C(=O)Nc2nccs2)c1` (stereo not given), for which the cytotoxicity at 70.5 h is -14.6%.

Turning to `CC(=O)N1CCN(c2ncnc3cc4c(cc23)OCCO4)CC1`, the cytotoxicity at 70.5 h is -6.91%.

Turning to `CC(C)C(=O)N1CCN(c2ncnc3cc4c(cc23)OCCO4)CC1`, the cytotoxicity at 70.5 h was -1.97%.

For `Cc1nn(C)c2c(N3CCN(C(=O)C(C)C)CC3)ncnc12`, the cytotoxicity at 70.5 h was -5.46%.

These data come from ChEMBL document CHEMBL3507680, “University of Dundee, Gates Library screen for HepG2 cell viability”.
